Data: patent EP0019937B1, “A method for producing alcohol oxidase, alcohol oxidase, enzyme preparation and a method for determining the concentration of a compound in an alcohol-containing sample” (PHILLIPS PETROLEUM COMPANY, priority 1979, dated 1980)

Legend:
[1] = target: T1, alcohol oxidase from Pichia pastoris (Komagataella phaffii, UniProt P04842); assay: Characteristics of the Pichia enzyme (Km, inhibitors, substrate reactivity); format: biochemical
T1 construct: preparation and isolation of pure crystalline alcohol oxidase from Pichia pastoris; endogenous in cells; homogenate supernatant dialysed to give crystalline enzyme
T1 sequence (P04842 1-663): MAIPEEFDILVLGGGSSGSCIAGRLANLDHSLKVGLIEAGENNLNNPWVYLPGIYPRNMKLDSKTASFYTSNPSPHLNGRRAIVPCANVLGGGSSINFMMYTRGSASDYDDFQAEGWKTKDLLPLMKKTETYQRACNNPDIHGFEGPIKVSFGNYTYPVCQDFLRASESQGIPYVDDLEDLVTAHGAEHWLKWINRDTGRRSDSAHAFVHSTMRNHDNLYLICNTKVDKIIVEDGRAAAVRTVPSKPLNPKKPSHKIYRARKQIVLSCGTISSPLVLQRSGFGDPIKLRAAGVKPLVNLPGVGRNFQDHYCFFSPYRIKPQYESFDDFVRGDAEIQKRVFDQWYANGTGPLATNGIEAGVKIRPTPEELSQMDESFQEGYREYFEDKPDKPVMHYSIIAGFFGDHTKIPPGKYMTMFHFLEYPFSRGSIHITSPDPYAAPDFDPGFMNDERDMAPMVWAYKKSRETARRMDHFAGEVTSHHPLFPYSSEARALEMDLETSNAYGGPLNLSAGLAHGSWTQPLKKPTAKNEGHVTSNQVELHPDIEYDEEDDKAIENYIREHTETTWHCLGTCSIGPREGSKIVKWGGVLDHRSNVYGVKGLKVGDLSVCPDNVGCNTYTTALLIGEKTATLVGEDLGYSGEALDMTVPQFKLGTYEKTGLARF

[2] = substrate: CO; assay: purified protein, by the assay type; settings: other: apparent Michaelis constant; pH 6.5

In the case of `CO` [Methanol], the Km ([1]; read-out: Km for methanol, apparent Michaelis constant) is reported as 4 mM.

In the case of `CC=O` [acetaldehyde], the “reactivity of the alcohol oxidase toward substrate” value [1] is reported as “not reactive”.

B1: alcohol oxidase from Pichia pastoris (Komagataella phaffii GS115) (protein)
chain: T1 sequence (P04842 1-663)
B1 gave a Km [2] of 4 mM.
